Results published in US20070280929A1, “ADJUVANT IN THE FORM OF A LIPID-MODIFIED NUCLEIC ACID” (priority 2006, published 2007).

What was measured:
[1] = tested on: breast cancer cell lines; conditions: various breast cancer cell lines; cited from earlier work
[2] = tested on: human PBMC cells; test: TNF-α release by human PBMC cells after 16 h co-incubation, supernatants analysed by ELISA; format: cell-based; conditions: FIG. 6, 10 μg/ml RNA oligonucleotides
Description: In order to determine the immunogenic activity of adjuvants according to the invention, such adjuvants in the form of a lipid-modified nucleic acid containing a sequence according to SEQ ID NO: 40, 41 or 42 were co-incubated with human cells. To this end, human PBMC cells, for example, containing RNA were co-incubated for 16 hours in X-vivo15 medium (BioWhittaker), enriched with 2 mM L-glutamine (BioWhittaker), 10 U/ml penicillin (BioWhittaker) and 10 μg/ml streptomycin, with 10 μg/ml of RNA (mRNA coding for β-galactosidase or phosphorothioate RNA oligonucleotide 40 5′ […] (SEQ ID NO: 40)) and optionally with 10 μg/ml protamine. The supernatants were removed and analysed by means of ELISA. […] When determining the TNFα release, a marked stimulation of the immune system can be detected, which is at least equal to that of β-galactosidase or RNA (see FIG. 5B).
In a further experiment, the release of TNF-α by human PBMC cells was determined after stimulation with RNA oligonucleotides used according to the invention and also adjuvants according to the invention.
To that end, human PBMC cells were co-incubated for 16 hours with 10 μg/ml of RNA oligonucleotides in X-vivo15 medium (BioWhittaker), enriched with 2 mM L-glutamine (BioWhittaker), 10 U/ml penicillin (BioWhittaker) and 10 μg/ml streptomycin. […] The supernatants were removed and analysed by means of ELISA. […]

Row | Molecule | apoptosis [1] | increase in immune stimulation (TNF-α release) as compared with the unmodified RNA oligonucleotide [2]
1 | Cc1c(C)c2c(c(C)c1OC(=O)CCC(=O)O)CC[C@@](C)(CCC[C@H](C)CCC[C@H](C)CCCC(C)C)O2 [VES, vitamin E succinate] | induce apoptosis | –
2 | RNA oligo Toc CV2: tocopherol-modified sequence according to SEQ ID NO: 42 (5′-AAUGGAUAUGGAAUAUGGAA-3′, RNA CV2) (RNA, backbone not given here; tocopherol lipid conjugated) | – | more than 10 fold
